≈ marks a conversion by molar mass, not a printed value. Calls of active or inactive are those of the source. The rule behind the calls is not given here.
Test system: Liver
Assay: Metabolic stability in mouse liver microsomes at 5 uM up to 1 hr by LC/MS/MS analysis
Assay type: ADME, Microsome
Settings: not given

Question: For `O=C(CCCCc1nnc(NC(=O)Cc2ccccc2)s1)NCCN1CCCC1`, which Stability is on record?
Answer: Its Stability is “Stable”.

Question: With `Nc1nnc(CCCCc2nnc(NC(=O)Cc3ccccc3)s2)s1` as the compound, how does the Stability read?
Answer: Its Stability is “Stable”.

Test system: P493
Assay: Antitumor activity against human P493 cells xenografted in SCID mouse assessed as reduction in tumor growth at 12.5 mg/kg, ip administered every other day from day 10 measured on days 10 to 19 relative to vehicle-treated control
Assay type: functional, organism-based
Parameters: dose 12.5 mg/kg
Settings: not given

Question: Which TGI does the source give for `Nc1nnc(CCSCCc2nnc(NC(=O)Cc3ccccc3)s2)s1` here?
Answer: Its TGI is “Active”.

Test system: not listed separately
Assay: (§1) Cytotoxicity against human P493 cells assessed as growth inhibition by trypan blue dye exclusion assay
Assay type: functional, cell-based
Settings: P493-6

Question: Which IC50 does the source give for `O=C(CCCCc1nnc(NC(=O)Cc2ccccc2)s1)NCCN1CCCC1` here?
Answer: Its IC50 is 40 µM.

Test system: P493
Assay: as §1
Assay type: functional, cell-based
Settings: not given

Question: With `Nc1nnc(CCSCCc2nnc(NC(=O)Cc3ccccc3)s2)s1` as the compound, how does the “growth inhibition (GI)” value read?
Answer: Its value is “Dose-dependent effect”.

Target: T1, Glutaminase liver isoform, mitochondrial (Mus musculus) (UniProt Q571F8)
T1 sequence (whole entry): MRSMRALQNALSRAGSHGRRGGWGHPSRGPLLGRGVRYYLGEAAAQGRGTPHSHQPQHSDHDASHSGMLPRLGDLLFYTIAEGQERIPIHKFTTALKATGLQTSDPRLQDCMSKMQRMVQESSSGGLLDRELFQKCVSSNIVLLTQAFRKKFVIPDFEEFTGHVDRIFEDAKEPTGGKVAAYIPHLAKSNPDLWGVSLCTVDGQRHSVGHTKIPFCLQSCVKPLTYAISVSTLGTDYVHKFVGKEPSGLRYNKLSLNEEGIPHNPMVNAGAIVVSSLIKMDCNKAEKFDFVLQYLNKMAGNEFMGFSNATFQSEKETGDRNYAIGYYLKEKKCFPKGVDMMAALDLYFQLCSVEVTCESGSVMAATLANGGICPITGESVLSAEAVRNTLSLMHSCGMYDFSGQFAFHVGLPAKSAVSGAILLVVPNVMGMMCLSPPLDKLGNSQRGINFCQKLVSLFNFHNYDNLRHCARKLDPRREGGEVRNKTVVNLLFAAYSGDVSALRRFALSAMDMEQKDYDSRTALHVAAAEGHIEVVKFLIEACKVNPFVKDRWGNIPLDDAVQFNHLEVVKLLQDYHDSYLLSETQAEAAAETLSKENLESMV
Assay: Inhibition of mouse liver GLS2 up to 100 uM
Settings: not given

Question: With `Nc1nnc(CCSCCc2nnc(NC(=O)Cc3ccccc3)s2)s1` as the compound, how does the inhibition read?
Answer: Its inhibition is “inactive”.

Target: T2, Glutaminase kidney isoform, mitochondrial (Homo sapiens, UniProt O94925)
T2 sequence (O94925 whole entry): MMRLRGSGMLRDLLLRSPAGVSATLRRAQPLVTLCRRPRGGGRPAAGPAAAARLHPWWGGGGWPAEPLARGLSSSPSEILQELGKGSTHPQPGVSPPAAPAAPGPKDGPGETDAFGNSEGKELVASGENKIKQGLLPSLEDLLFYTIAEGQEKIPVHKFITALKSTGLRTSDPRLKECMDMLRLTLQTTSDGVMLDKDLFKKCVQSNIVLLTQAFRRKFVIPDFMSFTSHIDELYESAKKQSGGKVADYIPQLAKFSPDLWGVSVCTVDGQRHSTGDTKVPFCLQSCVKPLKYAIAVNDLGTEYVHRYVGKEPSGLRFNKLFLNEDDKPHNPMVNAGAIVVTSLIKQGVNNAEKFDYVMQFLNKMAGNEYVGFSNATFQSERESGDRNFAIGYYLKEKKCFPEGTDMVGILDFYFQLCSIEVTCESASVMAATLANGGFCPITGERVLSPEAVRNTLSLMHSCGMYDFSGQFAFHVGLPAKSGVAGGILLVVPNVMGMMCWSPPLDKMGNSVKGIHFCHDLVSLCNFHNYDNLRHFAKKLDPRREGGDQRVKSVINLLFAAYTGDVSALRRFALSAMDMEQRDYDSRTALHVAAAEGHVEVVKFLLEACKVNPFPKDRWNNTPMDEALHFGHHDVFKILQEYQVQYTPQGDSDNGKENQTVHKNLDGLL
Assay: Inhibition of human kidney glutaminase (124 to 669) using L-[3H]-glutamine as substrate after 45 mins by GLS assay
Settings: not given

Question: With `Nc1nnc(CCCCc2csc(NC(=O)Cc3ccccc3)n2)s1` as the compound, how does the IC50 read?
Answer: Its IC50 is over 100 µM.

Question: For `Nc1nnc(CCCCc2nnc(NC(=O)CCc3ccccc3)s2)s1`, which IC50 is on record?
Answer: Its IC50 is over 100 µM.

Question: With `CN(C(=O)CCCCc1nnc(NC(=O)Cc2ccccc2)s1)C(C)(C)C` as the compound, how does the IC50 read?
Answer: Its IC50 is 5.2 µM.

Question: Which IC50 does the source give for `CN(CCN1CCCC1)C(=O)CCCCc1nnc(NC(=O)Cc2ccccc2)s1` here?
Answer: Its IC50 is over 100 µM.

Question: With `Nc1nnc(CCCCc2nnc(NC(=O)CC3CCCCC3)s2)s1` as the compound, how does the IC50 read?
Answer: The IC50 was 22 µM.

Question: For `Nc1nnc(CCCc2nnc(NC(=O)Cc3ccccc3)s2)s1`, which IC50 is on record?
Answer: Its IC50 is 15 µM.

Question: For `Nc1nnc(CCCCc2cnc(NC(=O)Cc3ccccc3)s2)s1`, which IC50 is on record?
Answer: The IC50 was over 100 µM.

Question: With `O=C(CCCCc1nnc(NC(=O)Cc2ccccc2)s1)NCc1ccc(C(F)(F)F)cc1` as the compound, how does the IC50 read?
Answer: Its IC50 is over 100 µM.

Question: With `CN(C)c1ccc(CNC(=O)CCCCc2nnc(NC(=O)Cc3ccccc3)s2)cc1` as the compound, how does the IC50 read?
Answer: Its IC50 is 48 µM.

Question: For `CN1CCCC1CCNC(=O)CCCCc1nnc(NC(=O)Cc2ccccc2)s1` (stereo not given), which IC50 is on record?
Answer: Its IC50 is 8.1 µM.

Question: For `CC(C(=O)Nc1nnc(CCCCc2nnc(N)s2)s1)c1ccccc1` (stereo not given), which IC50 is on record?
Answer: The IC50 was 12 µM.

Question: Which IC50 does the source give for `Nc1nnc(CCCCc2nnc(NC(=O)c3ccccc3)s2)s1` here?
Answer: Its IC50 is 7.2 µM.

Question: Which IC50 does the source give for `O=C(CCCCc1nnc(NC(=O)Cc2ccccc2)s1)NCCN1CCC(O)CC1` here?
Answer: The IC50 was 3.8 µM.

Question: With `Cc1ccc(CC(=O)Nc2nnc(CCCCc3nnc(N)s3)s2)cc1` as the compound, how does the IC50 read?
Answer: Its IC50 is 4.5 µM.

Question: With `O=C(CCCCc1nnc(NC(=O)Cc2ccccc2)s1)NCCN1CCCCC1` as the compound, how does the IC50 read?
Answer: Its IC50 is 10 µM.

Question: With `NCCNC(=O)CCCCc1nnc(NC(=O)Cc2ccccc2)s1` as the compound, how does the IC50 read?
Answer: Its IC50 is over 100 µM.

Question: Which IC50 does the source give for `CC(C)(C)NC(=O)CCCCc1nnc(NC(=O)Cc2ccccc2)s1` here?
Answer: Its IC50 is 11 µM.

Question: With `Nc1nnc(CCCCc2nnc(NC(=O)Cc3ccc(F)cc3)s2)s1` as the compound, how does the IC50 read?
Answer: The IC50 was 2.6 µM.

Question: Which IC50 does the source give for `CCN(CC)CCNC(=O)CCCCc1nnc(NC(=O)Cc2ccccc2)s1` here?
Answer: Its IC50 is 26 µM.

Question: With `Nc1nnc(CC[S+]([O-])CCc2nnc(NC(=O)Cc3ccccc3)s2)s1` (stereo not given) as the compound, how does the IC50 read?
Answer: Its IC50 is 61 µM.

Question: With `O=C(CCCCc1nnc(NC(=O)Cc2ccccc2)s1)NCCN1CCC(c2ccccc2)CC1` as the compound, how does the IC50 read?
Answer: Its IC50 is 1.4 µM.

Question: For `O=C(CCCCc1nnc(NC(=O)Cc2ccccc2)s1)NCc1ccccc1`, which IC50 is on record?
Answer: The IC50 was over 100 µM.

Test system: not listed separately
Assay: physchem
Settings: PBS buffer, pH 7.4
Description: Aqueous solubility of the compound in PBS buffer at pH 7.4 after 72 hrs by conventional shake flask method

Question: For `O=C(CCCCc1nnc(NC(=O)Cc2ccccc2)s1)NCCN1CCCC1`, which solubility thermodynamic at 72 h is on record?
Answer: The solubility thermodynamic at 72 h was 683 µg/mL (≈ 1640 µM).

Question: With `Nc1nnc(CCCCc2nnc(NC(=O)Cc3ccccc3)s2)s1` as the compound, how does the solubility thermodynamic at 72 h read?
Answer: The solubility thermodynamic at 72 h was 3.4 µg/mL (≈ 9.08 µM).
